In article PMC6976587, “Conversion of Broad-Spectrum Antimicrobial Peptides into Species-Specific Antimicrobials Capable of Precisely Targeting Pathogenic Bacteria” (Scientific Reports, 2020):
≈ marks a conversion by molar mass, not a printed value. Residues, ends and D or L forms follow the SMILES beside them.

Tests used:
S. aureus ATCC 29213 = assay type: cell-based, Staphylococcus aureus; settings: ATCC 29213, 16 h
Experimental: (§1) The antimicrobial activities of the peptides were investigated against the following bacteria: E. faecalis ATCC 29212, S. epidermidis ATCC 12228, S. aureus ATCC 29213, E. coli ATCC 25922, S. typhimurium […] and S. Pullorum […]. The MICs of the peptides were determined using a modified standard microtiter dilution method as described previously[29],[38]. Briefly, the microbial strains were cultured in MHB at 37 °C to reach mid-log phase and then diluted to 0.5-1×10^6 CFU/ml. 50 μL volumes of bacteria suspension were incubated in sterile 96-well plates with 50 μl of 2-fold serially diluted peptides at different concentrations (0.25-128 μM). Cultures with or without bacterial cells was employed as positive and negative controls, respectively. […] Each measurement was reproduced at least four times using three replicates.

E. faecalis ATCC 29212 = assay type: cell-based, Enterococcus faecalis; settings: ATCC 29212, 16 h
Experimental: as §1

S. Pullorum C7913 = assay type: cell-based, Salmonella Pullorum; settings: C7913, 16 h
Experimental: as §1

S. typhimurium C7731 = assay type: cell-based, Salmonella typhimurium; settings: C7731, 16 h
Experimental: as §1

[1] = tested on: S. epidermidis ATCC 12228; assay type: cell-based, Staphylococcus epidermidis; settings: ATCC 12228, 16 h
Experimental: as §1

E. coli ATCC 25922 = assay type: cell-based, Escherichia coli; settings: ATCC 25922, 16 h
Experimental: as §1

[2] = tested on: panel of microbes (Gram-negative and Gram-positive bacteria); assay type: cell-based; settings: 16 h
Experimental: as §1

SMILES	MIC (μM) Gram-positive S. aureus 1005 (S. aureus ATCC 29213) [µM]	MIC (μM) Gram-positive E. faecalis 25922 (E. faecalis ATCC 29212) [µM]	MIC (μM) Gram-negative S. Pullorum 43300 (S. Pullorum C7913) [µM]	MIC (μM) Gram-negative S. typhimurium 29213 (S. typhimurium C7731) [µM]	MIC (μM) Gram-positive S. epidermidis 7913 [1] [µM]	MIC (μM) Gram-negative E. coli 12228 (E. coli ATCC 25922) [µM]	MICs against the panel of microbes (range) [2] [µM]
CC(C)C[C@H](NC(=O)[C@@H](NC(=O)[C@@H](NC(=O)[C@@H](N)CC(C)C)C(C)C)[C@@H](C)O)C(=O)N[C@H](C(=O)N[C@@H](Cc1ccccc1)C(=O)N[C@H](C(=O)O)C(C)C)C(C)C [cCF10, reference compound] (H-LVTLVFV-OH)	>128	>128	>128	>128	>128	>128	–
NCCCC[C@H](NC(=O)CNC(=O)[C@H](CC(N)=O)NC(=O)[C@H](CCC(=O)O)NC(=O)[C@H](Cc1c[nH]c2ccccc12)NC(=O)[C@H](CCCCN)NC(=O)[C@H](Cc1c[nH]c2ccccc12)NC(=O)[C@H](CCCCN)NC(=O)[C@@H](N)Cc1c[nH]c2ccccc12)C(=O)N[C@@H](Cc1c[nH]c2ccccc12)C(=O)N[C@@H](CCCCN)C(=O)N[C@@H](Cc1c[nH]c2ccccc12)C(=O)N[C@@H](CCCCN)C(=O)N[C@@H](Cc1c[nH]c2ccccc12)C(=O)O [C4] (H-WKWKWENGKWKWKW-OH)	32 (≈ 66.4 µg/mL)	64 (≈ 133 µg/mL)	8 (≈ 16.6 µg/mL)	32 (≈ 66.4 µg/mL)	32 (≈ 66.4 µg/mL)	2 (≈ 4.15 µg/mL)	–
CC(C)C[C@H](NC(=O)CNC(=O)CNC(=O)CNC(=O)[C@H](Cc1c[nH]c2ccccc12)NC(=O)[C@H](CCCCN)NC(=O)[C@H](Cc1c[nH]c2ccccc12)NC(=O)[C@H](CCCCN)NC(=O)[C@H](Cc1c[nH]c2ccccc12)NC(=O)[C@H](CCCCN)NC(=O)CNC(=O)[C@H](CC(N)=O)NC(=O)[C@H](CCCCN)NC(=O)[C@H](Cc1c[nH]c2ccccc12)NC(=O)[C@H](CCCCN)NC(=O)[C@H](Cc1c[nH]c2ccccc12)NC(=O)[C@H](CCCCN)NC(=O)[C@@H](N)Cc1c[nH]c2ccccc12)C(=O)N[C@H](C(=O)N[C@H](C(=O)N[C@@H](CC(C)C)C(=O)N[C@H](C(=O)N[C@@H](Cc1ccccc1)C(=O)N[C@H](C(=O)O)C(C)C)C(C)C)[C@@H](C)O)C(C)C [C6-cCF10] (H-WKWKWKNGKWKWKWGGGLVTLVFV-OH)	8 (≈ 24.1 µg/mL)	16 (≈ 48.3 µg/mL)	8 (≈ 24.1 µg/mL)	>128	32 (≈ 96.6 µg/mL)	2 (≈ 6.04 µg/mL)	–
CC[C@H](C)[C@H](NC(=O)[C@H](Cc1ccccc1)NC(=O)[C@H](CS)NC(=O)[C@@H](NC(=O)[C@H](CO)NC(=O)[C@@H](N)Cc1ccc(O)cc1)[C@@H](C)O)C(=O)N[C@@H](CCSC)C(=O)NCC(=O)NCC(=O)NCC(=O)N[C@@H](Cc1c[nH]c2ccccc12)C(=O)N[C@@H](CCCCN)C(=O)N[C@@H](Cc1c[nH]c2ccccc12)C(=O)N[C@@H](CCCCN)C(=O)N[C@@H](Cc1c[nH]c2ccccc12)C(=O)N[C@@H](CCC(=O)O)C(=O)N[C@@H](CC(N)=O)C(=O)NCC(=O)N[C@@H](CCCCN)C(=O)N[C@@H](Cc1c[nH]c2ccccc12)C(=O)N[C@@H](CCCCN)C(=O)N[C@@H](Cc1c[nH]c2ccccc12)C(=O)N[C@@H](CCCCN)C(=O)N[C@@H](Cc1c[nH]c2ccccc12)C(=O)O [random-C4] (H-YSTCFIMGGGWKWKWENGKWKWKW-OH)	>128	>128	>128	>128	>128	32 (≈ 99 µg/mL)	–
CC(C)C[C@H](NC(=O)[C@@H](NC(=O)[C@@H](NC(=O)[C@@H](N)CC(C)C)C(C)C)[C@@H](C)O)C(=O)N[C@H](C(=O)N[C@@H](Cc1ccccc1)C(=O)N[C@H](C(=O)NCC(=O)NCC(=O)NCC(=O)N[C@@H](Cc1c[nH]c2ccccc12)C(=O)N[C@@H](CCCCN)C(=O)N[C@@H](Cc1c[nH]c2ccccc12)C(=O)N[C@@H](CCCCN)C(=O)N[C@@H](Cc1c[nH]c2ccccc12)C(=O)N[C@@H](CCC(=O)O)C(=O)N[C@@H](CC(N)=O)C(=O)NCC(=O)N[C@@H](CCCCN)C(=O)N[C@@H](Cc1c[nH]c2ccccc12)C(=O)N[C@@H](CCCCN)C(=O)N[C@@H](Cc1c[nH]c2ccccc12)C(=O)N[C@@H](CCCCN)C(=O)N[C@@H](Cc1c[nH]c2ccccc12)C(=O)O)C(C)C)C(C)C [cCF10-C4] (H-LVTLVFVGGGWKWKWENGKWKWKW-OH)	>128	8 (≈ 24.2 µg/mL)	>128	>128	>128	64 (≈ 193 µg/mL)	–
CC(C)C[C@H](NC(=O)[C@H](CCCNC(=N)N)NC(=O)CNC(=O)CNC(=O)[C@@H](N)CCCNC(=N)N)C(=O)N[C@H]1CSSC[C@@H](C(=O)N[C@H](C(=O)NCC(=O)N[C@@H](CCCNC(=N)N)C(N)=O)C(C)C)NC(=O)[C@H](C(C)C)NC(=O)[C@@H]2CSSC[C@H](NC(=O)[C@H](Cc3ccc(O)cc3)NC1=O)C(=O)N[C@@H](CCCNC(=N)N)C(=O)N[C@@H](CCCNC(=N)N)C(=O)N[C@@H](CCCNC(=N)N)C(=O)N[C@@H](Cc1ccccc1)C(=O)N2 [PG-1, reference compound]	8 (≈ 17.2 µg/mL)	4 (≈ 8.62 µg/mL)	8 (≈ 17.2 µg/mL)	8 (≈ 17.2 µg/mL)	16 (≈ 34.5 µg/mL)	2 (≈ 4.31 µg/mL)	–
NCCCC[C@H](NC(=O)CNC(=O)[C@H](CC(N)=O)NC(=O)[C@H](CCCCN)NC(=O)[C@H](Cc1c[nH]c2ccccc12)NC(=O)[C@H](CCCCN)NC(=O)[C@H](Cc1c[nH]c2ccccc12)NC(=O)[C@H](CCCCN)NC(=O)[C@@H](N)Cc1c[nH]c2ccccc12)C(=O)N[C@@H](Cc1c[nH]c2ccccc12)C(=O)N[C@@H](CCCCN)C(=O)N[C@@H](Cc1c[nH]c2ccccc12)C(=O)N[C@@H](CCCCN)C(=O)N[C@@H](Cc1c[nH]c2ccccc12)C(=O)O [C6] (H-WKWKWKNGKWKWKW-OH)	4 (≈ 8.3 µg/mL)	16 (≈ 33.2 µg/mL)	4 (≈ 8.3 µg/mL)	8 (≈ 16.6 µg/mL)	8 (≈ 16.6 µg/mL)	2 (≈ 4.15 µg/mL)	2 to 16
NCCCC[C@H](NC(=O)CNC(=O)[C@H](CC(N)=O)NC(=O)[C@H](CCC(=O)O)NC(=O)[C@H](Cc1c[nH]c2ccccc12)NC(=O)[C@H](CCCCN)NC(=O)[C@H](Cc1c[nH]c2ccccc12)NC(=O)[C@H](CCCCN)NC(=O)[C@@H](N)Cc1c[nH]c2ccccc12)C(=O)N[C@@H](Cc1c[nH]c2ccccc12)C(=O)N[C@@H](CCCCN)C(=O)N[C@@H](Cc1c[nH]c2ccccc12)C(=O)N[C@@H](CCC(N)=O)C(=O)N[C@@H](Cc1c[nH]c2ccccc12)C(=O)O [C3] (H-WKWKWENGKWKWQW-OH)	>128	>128	16 (≈ 33.2 µg/mL)	64 (≈ 133 µg/mL)	>128	32 (≈ 66.4 µg/mL)	–
CC(C)C[C@H](NC(=O)[C@@H](NC(=O)[C@@H](NC(=O)[C@@H](N)CC(C)C)C(C)C)[C@@H](C)O)C(=O)N[C@H](C(=O)N[C@@H](Cc1ccccc1)C(=O)N[C@H](C(=O)NCC(=O)NCC(=O)NCC(=O)N[C@@H](Cc1c[nH]c2ccccc12)C(=O)N[C@@H](CCCCN)C(=O)N[C@@H](Cc1c[nH]c2ccccc12)C(=O)N[C@@H](CCCCN)C(=O)N[C@@H](Cc1c[nH]c2ccccc12)C(=O)N[C@@H](CCCCN)C(=O)N[C@@H](CC(N)=O)C(=O)NCC(=O)N[C@@H](CCCCN)C(=O)N[C@@H](Cc1c[nH]c2ccccc12)C(=O)N[C@@H](CCCCN)C(=O)N[C@@H](Cc1c[nH]c2ccccc12)C(=O)N[C@@H](CCCCN)C(=O)N[C@@H](Cc1c[nH]c2ccccc12)C(=O)O)C(C)C)C(C)C [cCF10-C6] (H-LVTLVFVGGGWKWKWKNGKWKWKW-OH)	32 (≈ 96.6 µg/mL)	4 (≈ 12.1 µg/mL)	16 (≈ 48.3 µg/mL)	>128	32 (≈ 96.6 µg/mL)	4 (≈ 12.1 µg/mL)	–
CC(C)C[C@H](NC(=O)[C@@H](NC(=O)[C@@H](NC(=O)[C@@H](N)CC(C)C)C(C)C)[C@@H](C)O)C(=O)N[C@H](C(=O)N[C@@H](Cc1ccccc1)C(=O)N[C@H](C(=O)NCC(=O)NCC(=O)NCC(=O)N[C@@H](Cc1c[nH]c2ccccc12)C(=O)N[C@@H](CCCCN)C(=O)N[C@@H](Cc1c[nH]c2ccccc12)C(=O)N[C@@H](CCCCN)C(=O)N[C@@H](Cc1c[nH]c2ccccc12)C(=O)N[C@@H](CCC(=O)O)C(=O)N[C@@H](CC(N)=O)C(=O)NCC(=O)N[C@@H](CCCCN)C(=O)N[C@@H](Cc1c[nH]c2ccccc12)C(=O)N[C@@H](CCCCN)C(=O)N[C@@H](Cc1c[nH]c2ccccc12)C(=O)N[C@@H](CCC(N)=O)C(=O)N[C@@H](Cc1c[nH]c2ccccc12)C(=O)O)C(C)C)C(C)C [cCF10-C3] (H-LVTLVFVGGGWKWKWENGKWKWQW-OH)	>128	>128	>128	>128	>128	>128	–
